# Measurements as given in US20110184147A1, “ENZYME SUBSTRATE FOR LABELING OF PROTEIN” (priority 2008, published 2011).
# Entries after “also recorded” stand apart in the source; their conditions may differ.
# Experiments:
# MTG [1] = molecular target: T1, MTG (Streptomyces mobaraensis, UniProt P81453); assay: MTG-catalyzed introduction of fluorescent substrates into anti-lysozyme IgG2a antibody; assay type: biochemical, microbial; conditions: substrate 1 mM, mouse anti-lysozyme IgG2a 0.5 mg/ml, MTG 1 U/ml, pH 7, overnight 4° C.; reduced SDS-PAGE
# T1 construct: purchased AJINOMOTO (supplied as a gift)
# T1 sequence (P81453 77-407): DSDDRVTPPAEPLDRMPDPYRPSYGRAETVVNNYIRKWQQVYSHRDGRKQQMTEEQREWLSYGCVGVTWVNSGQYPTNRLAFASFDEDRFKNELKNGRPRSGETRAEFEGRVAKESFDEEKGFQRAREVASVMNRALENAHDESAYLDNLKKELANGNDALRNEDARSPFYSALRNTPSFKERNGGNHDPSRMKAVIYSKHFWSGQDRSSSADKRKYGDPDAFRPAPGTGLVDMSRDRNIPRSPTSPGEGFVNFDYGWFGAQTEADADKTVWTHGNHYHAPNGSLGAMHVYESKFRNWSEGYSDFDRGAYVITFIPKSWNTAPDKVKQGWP
# Procedure: A fluorescent substrate (FITC-ε-Acp-QG, FITC-β-Ala-QG, TR-β-Ala-QG or […]), mouse-derived anti-lysozyme IgG2a antibody (monoclonal) and MTG were added to a 10 mM phosphate buffer (pH 7) to give respective final concentrations of 1 mM, 0.5 mg/ml and 1 U/ml. For the purpose of comparison, an MTG-free sample was prepared. The ingredients were thoroughly agitated and the resulting solution was left to stand overnight at 4° C.
# After the reaction, the samples were subjected to SDS-PAGE. The gel from SDS-PAGE was examined with a fluorescent imager before it was stained with a CBB dye solution. For the Dns-ε-Acp-QG containing sample, examination was made with a transilluminator.
# MTG [2] = molecular target: T1, MTG; assay: MTG-catalyzed introduction of fluorescent substrates into NK6-AP (SDS-PAGE, fluorescent imager); assay type: biochemical, microbial
# Procedure: To perform a binding reaction, the fluorescent substrate (FITC-ε-Acp-QG, FITC-β-Ala-QG, Flc-QG, TR-β-Ala-QG or Dns-ε-Acp-QG), NK6-AP and MTG were added to 10 mM Tris-HCl (pH 8) to give respective final concentrations of 1 mM, 0.5 mg/ml and 1 U/ml and they were thoroughly agitated and the resulting solution was left to stand overnight at 4° C. For the purpose of comparison, an MTG-free sample was prepared.
# After the reaction, the samples were subjected to SDS-polyacrylamide gel electrophoresis (SDS-PAGE). The gel from SDS-PAGE was examined with a fluorescent imager before it was stained with Coomassie Brilliant Blue (CBB) in solution. For the sample containing Dns-ε-Acp-QG, examination was made with a transilluminator.
# (§1) A study was made using FITC-β-Ala-QG as a fluorescent substrate. The reaction conditions for introducing FITC-β-Ala-QG into NK6-AP were as follows: FITC-β-Ala-QG, NK6-AP and MTG were added to 10 mM Tris-HCl (pH 8) to give respective final concentrations of 0.1 mM, 0.5 mg/ml and 0.1 U/ml and they were thoroughly agitated at 4° C. for 0-5 hours. To trace the binding, the gel from SDS-PAGE was analyzed by a fluorescent imager.
# as §1, with “1-1000 μM,” for “0.1 mM,”, “15 minutes. Tracing on” for “0-5 hours. To trace”, “sample after” for “binding,”, “reaction” for “gel from SDS-PAGE”, “performed” for “analyzed”, “the same procedure as in Experiment 2-4.” for “a fluorescent imager.”
# Dns-β-Ala-QG-biotin, NK6-AP and MTG were added to 20 mM Tris-HCl (pH 8) to give respective final concentrations of 100 μM, 0.5 mg/ml, and 1 U/ml. For the purpose of comparison, an MTG-free sample was prepared. The ingredients were thoroughly agitated and the resulting solution was left to stand overnight at 4° C. for reaction.
# After the reaction, the samples were subjected to SDS-polyacrylamide gel electrophoresis (SDS-PAGE). The gel from SDS-PAGE was examined with a transilluminator before it was stained with Coomassie Brilliant Blue (CBB) in solution.
# To a 50 mM buffer whose pH was varied over the range of from 5 to 9, FITC-β-Ala-QG, NK6-AP and MTG were added to give respective final concentrations of 0.1 mM, 0.5 mg/ml, and 0.1 U/ml. These ingredients were well stirred and left to stand at 4° C. for reaction. After 6-hr or 15-minute reaction, the sample was mixed with a sample buffer and heated at 95° C. for 15 minutes to stop the reaction. Thereafter, SDS-polyacrylamide gel electrophoresis (SDS-PAGE) was applied. The gel from SDS-PAGE was stained with Coomassie Brilliant Blue (CBB) and observed with a fluorescent imager.
# (§2) To 50 mM Tris-HCl (pH 8), FITC-β-Ala-QG, NK6-AP and MTG were added to give respective final concentrations of 0.1 mM, 0.5 mg/ml, and 0.001-1 U/ml. These ingredients were well stirred and left to stand at 4° C. for reaction. The reaction was stopped and evaluation was made by the same procedures as in Experiment 2-2.
# as §2, with “FITC-β-Ala-QG-alkyne,” for “FITC-β-Ala-QG,”, “0.1” for “0.001-1”, “For the purpose of comparison, a MTG-free sample was also prepared. Both samples” for “These ingredients”
# [3] = NK6-AP 0.5 mg/ml, MTG 0.1 U/ml, pH 8, 4° C., 15 minutes
smiles,measurement,setting,value
NC(=O)CCC(NC(=O)CCNC(=S)Nc1ccc(-c2c3ccc(=O)cc-3oc3cc(O)ccc23)c(C(=O)O)c1)C(=O)NCC(=O)O (stereo not drawn) [FITC-β-Ala-QG],Reactivity of antibody with fluorescent substrate by MTG catalysis,MTG [1],H chains of the antibody are modified
same,pH range with comparable levels of fluorescent intensity (reaction saturated),"MTG [2]; 6-hr reaction, pH 5 to 9, substrate 0.1 mM, MTG 0.1 U/ml, 4° C.",5-8
same,pH of rapid introduction into NK6-AP,"MTG [2]; 15-min reaction, pH 5 to 9, substrate 0.1 mM, MTG 0.1 U/ml, 4° C.",rapid introduction was achieved at pH values of 6 and 8
same,Maximum substrate concentration at which reaction progressed,MTG [2]; [3],1 mM
same,Minimum substrate concentration at which reaction progressed and detection was possible,MTG [2]; [3],1 µM
same,Degree of introduction into NK6-AP at 1 U MTG,"MTG [2]; NK6-AP, substrate 0.1 mM, pH 8, 4° C.",did not drop
same,MTG concentration at which an adequately rapid reaction proceeded,"MTG [2]; NK6-AP, substrate 0.1 mM, pH 8, 4° C., MTG 0.001-1 U/ml",0.1 U
same,Reactivity of MTG for fluorescent substrate (introduction into NK6-AP),"MTG [2]; substrate 1 mM, NK6-AP 0.5 mg/ml, MTG 1 U/ml, 10 mM Tris-HCl pH 8, overnight 4° C.",served as substrates of MTG; also recorded: recognizable as a substrate of MTG
